Test system: reconstructed human epidermis
Assay: incorporation of 14C-acetate into total lipids in reconstructed human epidermis (Skinethic)
Type: cell-based
Settings: for percentage of stimulation (incorporation of 14C-acetate, total lipid synthesis): untreated cells = 100
Procedure: Study of the effect of β-naphthoxyacetic acid on the synthesis of the total lipids of the skin.
The study is carried out by measuring the incorporation of acetate labelled with carbon-14 in models of reconstructed human epidermis sold by the company Skinethic, the total lipids composition of which is close to that of normal human epidermis.
The reconstructed human epidermis is cultured according to the supplier's recommendations.
β-Naphthoxyacetic acid, at concentrations of 10^−5, 10^−6, and 10^−7 M, is placed in contact for 72 hours with reconstructed human epidermides, after culturing the latter for 14 days under the conditions recommended by the supplier. The labelling with ^14C-acetate (sodium [2-^14C]-acetate sold by Amersham, 59 mci/mmol) is carried out 24 hours after placing the test product in contact with the culture, i.e. during the final 48 hours of culturing, at a rate of 0.5 μCi of ^14C-acetate per culture.
At the end of culturing, after washing the epidermides with phosphate buffer (PBS), the epidermides are dissociated and the cells are lysed with 0.5 M perchloric acid from ice. The lysates then undergo an extraction with a methanol/chloroform mixture (2:1), a centrifugation and a re-extraction of the pellets obtained, under the same conditions as above. The lipids are separated by addition of PBS and chloroform (Blight-Byer technique). The organic phase containing the lipids is taken and the radioactivity incorporated into this phase is determined by liquid scintillation. The organic phase is then dried under a flow of nitrogen. A thin layer chromatography on plates on plates (Merck K60) using, as eluent, a chloroform/methanol/water mixture (50:18:2.6) to separate the phospholipids, or a hexane/ether/acetic acid mixture (15:5.6:0.19) to separate the neutral lipids.
The plates are then autoradiographed for 24 hours and the chromatograms are analysed by densitometry using the One-D-Scan software from the company Scanalytics.
The results are evaluated relative to a control consisting of cells which have not been treated with β-naphthoxyacetic acid.
A positive control (10^−4 M trifluoperazine), which is known to stimulate lipid synthesis, and an negative control (10^−6 M retinoic acid) are introduced into the test by way of reference.

SMILES | percentage of stimulation (incorporation of 14C-acetate, total lipid synthesis) (10^−6 M, 72 hours contact) [%] | percentage of stimulation (incorporation of 14C-acetate, total lipid synthesis) (10^−4 M, positive control) [%] | percentage of stimulation (incorporation of 14C-acetate, total lipid synthesis) (10^−5 M, 72 hours contact) [%] | effect on incorporation of acetate / lipid synthesis (in words) (10^−5 to 10^−7 M, reconstructed human epidermis) | percentage of stimulation (incorporation of 14C-acetate, total lipid synthesis) (10^−7 M, 72 hours contact) [%]
CC1=C(/C=C/C(C)=C/C=C/C(C)=C/C(=O)O)C(C)(C)CCC1 [Retinoic acid, retinoic acid, reference compound] | 82 | – | – | – | –
CN1CCN(CCCN2c3ccccc3Sc3ccc(C(F)(F)F)cc32)CC1 [Trifluoroperazine, trifluoperazine, reference compound] | – | 122 | – | – | –
O=C(O)COc1ccc2ccccc2c1 [β-Naphthoxyacetic acid] | 113 | – | 110 | significantly stimulates the incorporation of acetate | 116
